From PubChem BioAssay (NCI)
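48-hour exposure; five concentrations; linearly interpolated endpoints. TGI: concentration producing complete growth inhibition.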

Assays:
Assay in all cases: NCI tumour cell line growth inhibition, 48 h
IGROV1 ovarian = tested on: IGROV1 ovarian
OVCAR-8 ovarian = tested on: OVCAR-8 ovarian
A549 NSCLC = tested on: A549 NSCLC
UACC-257 melanoma = tested on: UACC-257 melanoma
MDA-MB-231 breast = tested on: MDA-MB-231 breast
U251 CNS = tested on: U251 CNS
SN12C renal = tested on: SN12C renal
CCRF-CEM leukemia = tested on: CCRF-CEM leukemia
SK-MEL-28 melanoma = tested on: SK-MEL-28 melanoma
HCC-2998 colon = tested on: HCC-2998 colon
SK-MEL-5 melanoma = tested on: SK-MEL-5 melanoma
EKVX NSCLC = tested on: EKVX NSCLC
786-0 renal = tested on: 786-0 renal
SNB-75 CNS = tested on: SNB-75 CNS
RPMI-8226 leukemia = tested on: RPMI-8226 leukemia
HL-60(TB) leukemia = tested on: HL-60(TB) leukemia
NCI-H226 lung = tested on: NCI-H226 lung
KM12 colon = tested on: KM12 colon
OVCAR-5 ovarian = tested on: OVCAR-5 ovarian
BT-549 breast = tested on: BT-549 breast
UO-31 renal = tested on: UO-31 renal
HT29 colon = tested on: HT29 colon
K-562 leukemia = tested on: K-562 leukemia
NCI-H23 lung = tested on: NCI-H23 lung
TK-10 renal = tested on: TK-10 renal
LOX IMVI melanoma = tested on: LOX IMVI melanoma
DU-145 prostate = tested on: DU-145 prostate
ACHN renal = tested on: ACHN renal
NCI/ADR-RES ovarian = tested on: NCI/ADR-RES ovarian
HCT-15 colon = tested on: HCT-15 colon
NCI-H460 lung = tested on: NCI-H460 lung
CAKI-1 renal = tested on: CAKI-1 renal
MCF7 breast = tested on: MCF7 breast
MDA-MB-435 = tested on: MDA-MB-435
SF-268 CNS = tested on: SF-268 CNS
MOLT-4 leukemia = tested on: MOLT-4 leukemia
MDA-N = tested on: MDA-N
SF-539 CNS = tested on: SF-539 CNS
A498 renal = tested on: A498 renal
SF-295 CNS = tested on: SF-295 CNS
RXF 393 renal = tested on: RXF 393 renal
MALME-3M melanoma = tested on: MALME-3M melanoma
M14 melanoma = tested on: M14 melanoma
SNB-19 CNS = tested on: SNB-19 CNS
HOP-92 NSCLC = tested on: HOP-92 NSCLC
SR leukemia = tested on: SR leukemia
PC-3 prostate = tested on: PC-3 prostate
HS 578T breast = tested on: HS 578T breast
HCT-116 colon = tested on: HCT-116 colon
SW-620 colon = tested on: SW-620 colon
COLO 205 colon = tested on: COLO 205 colon
NCI-H522 lung = tested on: NCI-H522 lung
HOP-62 NSCLC = tested on: HOP-62 NSCLC
OVCAR-4 ovarian = tested on: OVCAR-4 ovarian
T-47D breast = tested on: T-47D breast
SK-OV-3 ovarian = tested on: SK-OV-3 ovarian
UACC-62 melanoma = tested on: UACC-62 melanoma
OVCAR-3 ovarian = tested on: OVCAR-3 ovarian
SK-MEL-2 melanoma = tested on: SK-MEL-2 melanoma

CN1CC[C@]2(c3cccc(O)c3)CC(=O)/C(=C/c3ccc(Cl)c(Cl)c3)[C@@H]1C2
TGI (IGROV1 ovarian): 3.72 µM
TGI (OVCAR-8 ovarian): 4.35 µM
TGI (A549 NSCLC): 3.36 µM
TGI (UACC-257 melanoma): 2.93 µM
TGI (MDA-MB-231 breast): 2.4 µM
TGI (U251 CNS): 2.14 µM
TGI (SN12C renal): 2.29 µM
TGI (CCRF-CEM leukemia): 2.85 µM
TGI (SK-MEL-28 melanoma): 3.28 µM
TGI (HCC-2998 colon): 2.77 µM
TGI (SK-MEL-5 melanoma): 3.1 µM
TGI (EKVX NSCLC): 3.03 µM
TGI (786-0 renal): 2.23 µM
TGI (SNB-75 CNS): 1.55 µM
TGI (RPMI-8226 leukemia): 0.901 µM
TGI (HL-60(TB) leukemia): 0.464 µM
TGI (NCI-H226 lung): 4.7 µM
TGI (KM12 colon): 2.06 µM
TGI (OVCAR-5 ovarian): 3.18 µM
TGI (BT-549 breast): 3.14 µM
TGI (UO-31 renal): 2.61 µM
TGI (HT29 colon): 2.22 µM
TGI (K-562 leukemia): 1.1 µM
TGI (NCI-H23 lung): 4.33 µM
TGI (TK-10 renal): 3.48 µM
TGI (LOX IMVI melanoma): 0.327 µM
TGI (DU-145 prostate): 3.01 µM
TGI (ACHN renal): 2.38 µM
TGI (NCI/ADR-RES ovarian): 6.76 µM
TGI (HCT-15 colon): 2.52 µM
TGI (NCI-H460 lung): 3.39 µM
TGI (CAKI-1 renal): 2.32 µM
TGI (MCF7 breast): 9.41 µM
TGI (MDA-MB-435): 1.4 µM
TGI (SF-268 CNS): 3.66 µM
TGI (MOLT-4 leukemia): 0.71 µM
TGI (MDA-N): 1.83 µM
TGI (SF-539 CNS): 4.52 µM
TGI (A498 renal): 3.69 µM
TGI (SF-295 CNS): 2.86 µM
TGI (RXF 393 renal): 1.92 µM
TGI (MALME-3M melanoma): 2.85 µM
TGI (M14 melanoma): 3.08 µM
TGI (SNB-19 CNS): 3.48 µM
TGI (HOP-92 NSCLC): 2.57 µM
TGI (SR leukemia): 10.3 µM
TGI (PC-3 prostate): 1.42 µM
TGI (HS 578T breast): 6.59 µM
TGI (HCT-116 colon): 2.47 µM
TGI (SW-620 colon): 2.41 µM
TGI (COLO 205 colon): 2.96 µM

CCOC(=O)c1ccc(Nc2nc3ccccc3nc2C(=O)OCC)cc1
TGI (NCI-H522 lung): > 100 µM
TGI (IGROV1 ovarian): > 100 µM
TGI (OVCAR-8 ovarian): > 100 µM
TGI (A549 NSCLC): > 100 µM
TGI (MDA-MB-231 breast): > 100 µM
TGI (U251 CNS): > 100 µM
TGI (SN12C renal): > 100 µM
TGI (CCRF-CEM leukemia): > 100 µM
TGI (HOP-62 NSCLC): > 100 µM
TGI (SK-MEL-28 melanoma): > 100 µM
TGI (HCC-2998 colon): > 100 µM
TGI (SK-MEL-5 melanoma): > 100 µM
TGI (EKVX NSCLC): > 100 µM
TGI (786-0 renal): > 100 µM
TGI (OVCAR-4 ovarian): > 100 µM
TGI (SNB-75 CNS): > 100 µM
TGI (RPMI-8226 leukemia): > 100 µM
TGI (HL-60(TB) leukemia): > 100 µM
TGI (KM12 colon): > 100 µM
TGI (OVCAR-5 ovarian): > 100 µM
TGI (BT-549 breast): > 100 µM
TGI (UO-31 renal): > 100 µM
TGI (HT29 colon): > 100 µM
TGI (K-562 leukemia): > 100 µM
TGI (NCI-H23 lung): > 100 µM
TGI (T-47D breast): > 100 µM
TGI (TK-10 renal): > 100 µM
TGI (DU-145 prostate): > 100 µM
TGI (ACHN renal): > 100 µM
TGI (SK-OV-3 ovarian): > 100 µM
TGI (NCI/ADR-RES ovarian): > 100 µM
TGI (HCT-15 colon): > 100 µM
TGI (NCI-H460 lung): > 100 µM
TGI (CAKI-1 renal): > 100 µM
TGI (MCF7 breast): > 100 µM
TGI (MDA-MB-435): > 100 µM
TGI (SF-268 CNS): > 100 µM
TGI (MOLT-4 leukemia): > 100 µM
TGI (MDA-N): > 100 µM
TGI (SF-539 CNS): > 100 µM
TGI (MALME-3M melanoma): > 100 µM
TGI (UACC-62 melanoma): > 100 µM
TGI (M14 melanoma): > 100 µM
TGI (SNB-19 CNS): > 100 µM
TGI (HOP-92 NSCLC): > 100 µM
TGI (SR leukemia): > 100 µM
TGI (HS 578T breast): > 100 µM
TGI (HCT-116 colon): > 100 µM
TGI (OVCAR-3 ovarian): > 100 µM
TGI (SK-MEL-2 melanoma): > 100 µM
TGI (COLO 205 colon): > 100 µM
